Test results reported in patent US20090209536A1, “AMINOQUINAZOLINE CANNABINOID RECEPTOR MODULATORS FOR TREATMENT OF DISEASE” (KALYPSYS, INC., priority 2007, published 2009).
Where two headings read alike, the source gives them in different places.

Experiments:
[1] = molecular target: T1, human cannabinoid receptor type 1 (Homo sapiens, UniProt P21554); test: Human CB1 Radioligand Binding Assay (basis of selectivity, CB2 vs. CB1); conditions: CB1: HEK 293 EBNA cells expressing human CB1; CB2: CHO CB2 membranes
T1 construct: purchased Perkin Elmer RBHCB1M; host or cells: HEK 293 EBNA cells
Method: 2. Human CB1 Radioligand Binding Assay
The incubation buffer was composed of 50 mM Tris-HCl pH 7.4, 2.5 mM EDTA, 5 mM MgCl2, 5.0 mg/ml fatty acid free BSA and the wash buffer was composed of 50 mM Tris-HCl pH 7.4, 2.5 mM EDTA, 5 mM MgCl2, 0.5 mg/ml fatty acid free BSA.

[2] = molecular target: T2, human cannabinoid receptor type 2 (Homo sapiens, UniProt P34972); test: Human CB2 Radioligand Binding Assay; conditions: membranes from stably transfected CHO CB2 cells
T2 construct: expressed in transfected cells; membrane preparation
Method: 1. Human CB2 Radioligand Binding Assay
This receptor binding filtration assay measures the receptor-ligand interactions of compounds by measuring ability to compete with a radiolabeled control ligand. Reactions were performed in 96 deep-well plate (Costar 3961) with a final volume of 600 ul. Compounds were added to each well either in single point (10 uM final) or dose-response. Compounds were delivered in DMSO or further diluted in incubation buffer to a final assay DMSO concentration of 1%. Incubation buffer (50 mM Tris-HCl pH 7.4, 2.5 mM EGTA, 5 mM MgCl2, 5.0 mg/ml fatty acid free BSA) was added to each well. Following buffer addition, [^3H] CP-55,940 was added. Tritiated CP-55,940 (Perkin Elmer) was used at the Kd determined from prior saturation binding experiments conducted on each lot of membranes. Membrane preparations from stably transfected CHO CB2 cells were added and the reaction was incubated for 90 minutes at 30° C. Unifilter GF/C filtration plates (Perkin Elmer) were pre-wet with 0.05% polyethylenimine. Samples were transferred to Unifilter plates and separation of unbound radioligand was achieved using a vacuum manifold (Millipore). Following thorough washing with 5 ml/well ice-cold wash buffer (50 mM Tris-HCl pH 7.4, 2.5 mM EGTA, 5 mM MgCl2, 0.5 mg/ml fatty acid free BSA), filterplates were dried completely. Betaplate Scint Scintillation cocktail (25 ul, Perkin Elmer) was applied and plates were read using Microbeta Trilux (Wallac). Data analysis was performed in Spotfire. Activity of the positive control (100 nM CP-55,940) was set as 100% efficacy.
Stable recombinant Human CB2-CHO cell membranes were prepared as follows: Chinese Hamster Ovarian (CHO) cells stably expressing human cannabinoid receptor type 2 were grown to 90% confluence in 15×100 mm culture dishes under puromycin selection (5 ug/ml) Cells were harvested from culture flasks using a cell scraper, were washed once with cold phosphate-buffered saline (calcium and magnesium free) and pelleted by centrifugation at 400 g for 5 min at 4° C. Cell pellet was washed once with cold phosphate-buffered saline and centrifuged again at 400×g for 5 min at 4° C. The pellet was suspended in ice-cold lysis buffer (10 mM Tris-HCl, 0.1 mM EDTA, containing […], pH 7.5) and homogenized in a chilled 7 ml glass dounce homogenizer using 50 strokes. The homogenate was centrifuged at 400 g for 15 min at 4° C. The cloudy supernatant was collected and centrifuged at 41000 g for 30 min at 4° C. The resulting pellet was washed with ice-cold sucrose-free lysis buffer and centrifuged again at 41000 g for 30 min at 4° C. The membrane pellet was suspended in sucrose-free storage buffer (10 mm Tris-HCl, 0.1 mM EDTA, pH 7.5) to a concentration of 2-3 mg protein/ml. Aliquots were flash frozen in liquid nitrogen and stored at −80° C. Concentration was determined using Dc protein assay kit (Bio-Rad).

[3] = competition with [3H] CP-55,940, read-out: CB2 Ligand Binding Asssay EC50

T1 sequence (P21554 whole entry): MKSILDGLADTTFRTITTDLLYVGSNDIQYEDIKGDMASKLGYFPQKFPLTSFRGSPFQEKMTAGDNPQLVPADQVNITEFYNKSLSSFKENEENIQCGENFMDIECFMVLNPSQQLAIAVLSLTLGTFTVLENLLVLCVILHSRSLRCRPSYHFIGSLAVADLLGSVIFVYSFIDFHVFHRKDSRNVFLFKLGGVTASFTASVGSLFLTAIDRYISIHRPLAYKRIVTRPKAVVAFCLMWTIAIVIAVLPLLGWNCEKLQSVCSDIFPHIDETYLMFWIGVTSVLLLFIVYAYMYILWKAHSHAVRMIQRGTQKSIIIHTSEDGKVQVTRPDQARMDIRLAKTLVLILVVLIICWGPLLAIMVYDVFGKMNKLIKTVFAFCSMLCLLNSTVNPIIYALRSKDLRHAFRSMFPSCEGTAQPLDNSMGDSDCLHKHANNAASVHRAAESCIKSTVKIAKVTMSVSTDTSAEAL
T2 sequence (P34972 whole entry): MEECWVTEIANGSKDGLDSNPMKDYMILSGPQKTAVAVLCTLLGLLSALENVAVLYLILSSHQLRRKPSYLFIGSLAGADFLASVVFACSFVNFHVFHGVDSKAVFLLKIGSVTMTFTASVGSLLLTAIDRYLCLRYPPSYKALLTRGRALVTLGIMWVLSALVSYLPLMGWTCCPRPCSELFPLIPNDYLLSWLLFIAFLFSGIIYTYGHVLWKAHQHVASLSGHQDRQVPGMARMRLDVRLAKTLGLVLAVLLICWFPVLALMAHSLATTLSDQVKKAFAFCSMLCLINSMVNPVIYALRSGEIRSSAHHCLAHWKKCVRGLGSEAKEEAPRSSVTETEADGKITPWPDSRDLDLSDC

For `Clc1ccccc1-c1nc(N2CCCC2)c2ccccc2n1` [Example 53, 2-(2-Chlorophenyl)-4-(pyrrolidin-1-yl)quinazoline], the “Selectivity, CB2 vs. CB1” value [1] was “+ (+ indicates > 10−fold)” and the EC50 [2, 3] was greater than 1000 nM.
With `Clc1ccccc1-c1nc(N2CCCCC2)c2ccccc2n1` [Example 54, 2-(2-Chlorophenyl)-4-(piperidin-1-yl)quinazoline] the “Selectivity, CB2 vs. CB1” value [1] was “+ (+ indicates > 10−fold)” and the EC50 [2, 3] was less than 1000 nM.
For `CN(Cc1ccccc1)c1nc(-c2ccccc2Cl)nc2ccccc12` [Example 55, N-Benzyl-2-(2-chlorophenyl)-N-methylquinazolin-4-amine], the “Selectivity, CB2 vs. CB1” value [1] was “− (− indicates ≦ 10−fold)” and the EC50 [2, 3] was less than 1000 nM.
In the case of `Clc1ccccc1-c1nc(NCC2CC2)c2ccccc2n1` [Example 56, 2-(2-Chlorophenyl)-N-(cyclopropylmethyl)quinazolin-4-amine], the “Selectivity, CB2 vs. CB1” value [1] is reported as “− (− indicates ≦ 10−fold)” and the EC50 [2, 3] is reported as greater than 1000 nM.
With `CN1CCN(c2nc(-c3ccccc3Cl)nc3ccccc23)CC1` [Example 57, 2-(2-Chlorophenyl)-4-(4-methylpiperazin-1-yl)quinazoline] the “Selectivity, CB2 vs. CB1” value [1] was “+ (+ indicates > 10−fold)” and the EC50 [2, 3] was less than 1000 nM.
With `CC1CCN(c2nc(-c3ccccc3Cl)nc3ccccc23)CC1` [Example 58, 2-(2-Chlorophenyl)-4-(4-methylpiperidin-1-yl)quinazoline] the “Selectivity, CB2 vs. CB1” value [1] was “− (− indicates ≦ 10−fold)” and the EC50 [2, 3] was less than 1000 nM.
`CC1CCCCN1c1nc(-c2ccccc2Cl)nc2ccccc12` (stereo not drawn) [Example 59, 2-(2-Chlorophenyl)-4-(2-methylpiperidin-1-yl)quinazoline] was tested, and the “Selectivity, CB2 vs. CB1” value [1] was “− (− indicates ≦ 10−fold)” and the EC50 [2, 3] was less than 1000 nM.
With `FC(F)(F)C1CCN(c2nc(-c3ccccc3Cl)nc3ccccc23)CC1` [Example 60, 2-(2-Chlorophenyl)-4-(4-(trifluoromethyl)piperidin-1-yl)quinazoline] the “Selectivity, CB2 vs. CB1” value [1] was “− (− indicates ≦ 10−fold)” and the EC50 [2, 3] was less than 1000 nM.
For `Clc1ccccc1-c1nc(N2CCc3ccccc3C2)c2ccccc2n1` [Example 61, 2-(2-Chlorophenyl)-4-(3,4-dihydroisoquinolin-2(1H)-yl)quinazoline], the “Selectivity, CB2 vs. CB1” value [1] was “− (− indicates ≦ 10−fold)” and the EC50 [2, 3] was less than 1000 nM.
`CCOC(=O)N1CCN(c2nc(-c3ccccc3Cl)nc3ccccc23)CC1` [Example 62, Ethyl 4-(2-(2-Chlorophenyl)quinazolin-4-yl)piperazine-1-carboxylate] was tested, and the “Selectivity, CB2 vs. CB1” value [1] was “+ (+ indicates > 10−fold)” and the EC50 [2, 3] was less than 1000 nM.
For `CN(c1nc(-c2ccccc2Cl)nc2ccccc12)C1CCCCC1` [Example 63, 2-(2-Chlorophenyl)-N-cyclohexyl-N-methylquinazolin-4-amine], the “Selectivity, CB2 vs. CB1” value [1] was “− (− indicates ≦ 10−fold)” and the EC50 [2, 3] was less than 1000 nM.
In the case of `CCCCN(C)c1nc(-c2ccccc2Cl)nc2ccccc12` [Example 64, N-Butyl-2-(2-chlorophenyl)-N-methylquinazolin-4-amine], the “Selectivity, CB2 vs. CB1” value [1] is reported as “− (− indicates ≦ 10−fold)” and the EC50 [2, 3] is reported as less than 1000 nM.
In the case of `O=C1CCN(c2nc(-c3ccccc3Cl)nc3ccccc23)CC1` [Example 65, 1-(2-(2-Chlorophenyl)quinazolin-4-yl)piperidin-4-one], the “Selectivity, CB2 vs. CB1” value [1] is reported as “− (− indicates ≦ 10−fold)” and the EC50 [2, 3] is reported as less than 1000 nM.
For `OC1(c2ccc(Cl)cc2)CCN(c2nc(-c3ccccc3Cl)nc3ccccc23)CC1` [Example 66, 4-(4-Chlorophenyl)-1-[2-(2-chlorophenyl)quinazolin-4-yl]piperidin-4-ol], the “Selectivity, CB2 vs. CB1” value [1] was “− (− indicates ≦ 10−fold)” and the EC50 [2, 3] was less than 1000 nM.
`Cc1ccc(Cl)cc1N1CCN(c2nc(-c3ccccc3Cl)nc3ccccc23)CC1` [Example 67, 4-[4-(5-Chloro-2-methylphenyl)piperazin-1-yl]-2-(2-chlorophenyl) quinazoline] was tested, and the “Selectivity, CB2 vs. CB1” value [1] was “− (− indicates ≦ 10−fold)” and the EC50 [2, 3] was less than 1000 nM.
In the case of `Clc1ccccc1-c1nc(N2CCSCC2)c2ccccc2n1` [Example 68, 2-(2-Chlorophenyl)-4-thiomorpholin-4-ylquinazoline], the “Selectivity, CB2 vs. CB1” value [1] is reported as “− (− indicates ≦ 10−fold)” and the EC50 [2, 3] is reported as less than 1000 nM.
For `CC(C)(C)c1ccc(Nc2nc(-c3ccccc3Cl)nc3ccccc23)cc1` [Example 69, (4-tert-Butylphenyl)-[2-(2-chlorophenyl)quinazolin-4-yl]amine], the “Selectivity, CB2 vs. CB1” value [1] was “− (− indicates ≦ 10−fold)” and the EC50 [2, 3] was greater than 1000 nM.
For `O=C1CCCN1c1nc(-c2ccccc2Cl)nc2ccccc12` [Example 70, 1-(2-(2-Chlorophenyl)quinazolin-4-yl)pyrrolidin-2-one], the “Selectivity, CB2 vs. CB1” value [1] was “− (− indicates ≦ 10−fold)” and the EC50 [2, 3] was greater than 1000 nM.
For `O=C1CNCCN1c1nc(-c2ccccc2Cl)nc2ccccc12` [Example 71, 1-(2-(2-Chlorophenyl)quinazolin-4-yl)piperazin-2-one], the “Selectivity, CB2 vs. CB1” value [1] was “− (− indicates ≦ 10−fold)” and the EC50 [2, 3] was greater than 1000 nM.
`O=C1CN(c2nc(-c3ccccc3Cl)nc3ccccc23)CCN1` [Example 72, 4-(2-(2-Chlorophenyl)quinazolin-4-yl)piperazin-2-one] was tested, and the “Selectivity, CB2 vs. CB1” value [1] was “− (− indicates ≦ 10−fold)” and the EC50 [2, 3] was greater than 1000 nM.
With `CCN1CCN(c2nc(-c3ccccc3Cl)nc3ccccc23)C(=O)C1` [Example 73, 1-(2-(2-Chlorophenyl)quinazolin-4-yl)-4-ethylpiperazin-2-one] the “Selectivity, CB2 vs. CB1” value [1] was “− (− indicates ≦ 10−fold)” and the EC50 [2, 3] was greater than 1000 nM.
In the case of `CN1CCN(c2nc(-c3ccccc3Cl)nc3ccccc23)C(=O)C1` [Example 74, 1-(2-(2-Chlorophenyl)quinazolin-4-yl)-4-methylpiperazin-2-one], the “Selectivity, CB2 vs. CB1” value [1] is reported as “− (− indicates ≦ 10−fold)” and the EC50 [2, 3] is reported as greater than 1000 nM.
`CC(C)(C)OC(=O)N1CCN(c2nc(-c3ccccc3Cl)nc3ccccc23)C(=O)C1` [Example 75, tert-Butyl 4-(2-(2-Chlorophenyl)quinazolin-4-yl)-3-oxopiperazine-1-carboxylate] was tested, and the “Selectivity, CB2 vs. CB1” value [1] was “− (− indicates ≦ 10−fold)” and the EC50 ([2]; CB2 Ligand Binding Asssay EC50, competition with [3H] CP-55,940) was greater than 1000 nM.
`CN1CCN(c2nc(-c3ccccc3Cl)nc3ccccc23)CC1=O` [Example 76, 4-(2-(2-Chlorophenyl)quinazolin-4-yl)-1-methylpiperazin-2-one] was tested, and the “Selectivity, CB2 vs. CB1” value [1] was “− (− indicates ≦ 10−fold)” and the EC50 [2, 3] was greater than 1000 nM.
`C[C@@H]1CN(c2nc(-c3ccccc3Cl)nc3ccccc23)C[C@H](C)N1` [Example 77, 2-(2-Chlorophenyl)-4-((3S,5R)-3,5-dimethylpiperazin-1-yl)quinazoline] was tested, and the “Selectivity, CB2 vs. CB1” value [1] was “− (− indicates ≦ 10−fold)” and the EC50 [2, 3] was greater than 1000 nM.
`C[C@@H]1CN(c2nc(-c3ccccc3Cl)nc3ccccc23)C[C@H](C)N1C` [Example 78, 2-(2-Chlorophenyl)-4-((3S,5R)-3,4,5-trimethylpiperazin-1-yl)quinazoline] was tested, and the “Selectivity, CB2 vs. CB1” value [1] was “− (− indicates ≦ 10−fold)” and the EC50 [2, 3] was less than 1000 nM.
With `CCCN1[C@H](C)CN(c2nc(-c3ccccc3Cl)nc3ccccc23)C[C@@H]1C` [Example 79, 2-(2-Chlorophenyl)-4-((3S,5R)-3,5-dimethyl-4-propylpiperazin-1-yl)quinazoline] the “Selectivity, CB2 vs. CB1” value [1] was “− (− indicates ≦ 10−fold)” and the EC50 [2, 3] was less than 1000 nM.
In the case of `CCN1[C@H](C)CN(c2nc(-c3ccccc3Cl)nc3ccccc23)C[C@@H]1C` [Example 80, 2-(2-Chlorophenyl)-4-((3S,5R)-4-ethyl-3,5-dimethylpiperazin-1-yl)quinazoline], the “Selectivity, CB2 vs. CB1” value [1] is reported as “− (− indicates ≦ 10−fold)” and the EC50 [2, 3] is reported as less than 1000 nM.
For `CN(c1ccc(C(C)(C)C)cc1)c1nc(-c2ccccc2Cl)nc2ccccc12` [Example 81, (4-tert-Butylphenyl)-[2-(2-chlorophenyl)quinazolin-4-yl]methylamine], the “Selectivity, CB2 vs. CB1” value [1] was “− (− indicates ≦ 10−fold)” and the EC50 [2, 3] was greater than 1000 nM.
With `Clc1ccccc1-c1nc(N2CCNCC2)c2ccccc2n1` [Example 82, 2-(2-Chlorophenyl)-4-piperazin-1-ylquinazoline] the “Selectivity, CB2 vs. CB1” value [1] was “− (− indicates ≦ 10−fold)” and the EC50 [2, 3] was greater than 1000 nM.
